Patent US6340455B1, “Testkit and method” (Peridoc AB, priority 1996, dated 2002)

System: individuals (patients with severe marginal periodontitis, healthy control individuals)
Experiment: Skin Prick Test with Lipid A
Type: in vivo, human
Conditions: for % + with 0.1 mg Lipid A / % + with 1 mg Lipid A: result registered after 18 to 24 hours
Experimental: Skin Prick Test with Lipid A was performed on three groups of individuals:
Patients with severe marginal periodontitis which responds to treatment.
Healthy control individuals without marginal periodontitis.
(The test was performed according to a routine procedure as described in Aas K, Backman A, Berlin L, Weeke B. Standardization of allergen extracts with appropriate methods. The combined use of skin prick testing and standardization of allergen extracts. Acta Allergol 1978; 33:238-240, and in Malling H-J. The skin prick testing and the use of histamine references. Allergy 1984; 39:596-601).
Patient and disease characteristics for the three groups can be found in Table 1 below. GI (gingival index) was used as measure of active disease. […] The test substance was Lipid A dissolved in water (0.1 mg/ml and 1 mg/ml). Histamine (10 mg/ml in water) and water served as positive and negative controls, respectively. The result was registered after 18 to 24 hours.
Students t-test was employed to test levels of significance for differences between test and control groups.

[1] = healthy control individuals without marginal periodontitis, n=16
[2] = patients with severe marginal periodontitis which responds to treatment (GI ≦ 20), n=38
[3] = refractory patients: severe marginal periodontitis not responding to treatment (GI > 20), n=14

| Compound | skin prick reaction (positive/negative) (all individuals of the three groups, histamine 10 mg/ml in water, positive control) | % + with 0.1 mg Lipid A [1] [%] | % + with 1 mg Lipid A [1] [%] | % + with 0.1 mg Lipid A [2] [%] | % + with 1 mg Lipid A [2] [%] | response to Lipid A in skin prick test (in words) (refractory patients (severe marginal periodontitis not responding to treatment)) | % + with 0.1 mg Lipid A [3] [%] | % + with 1 mg Lipid A [3] [%] |
| --- | --- | --- | --- | --- | --- | --- | --- | --- |
| NCCc1c[nH]cn1 [histamine] | reacted positively |  |  |  |  |  |  |  |
| Lipid A |  | 18.8 | 50.0 | 21.1 | 57.9 | almost no positive response | 7.1 | 7.1 |
